Columns and labels:
Assay type in all cases: functional, cell-based
MCF7 = test: In vitro cytotoxic activity of compound against human MCF-7 cell line
PC-3 = test: In vitro cytotoxic activity of compound against human PC3 cell line
L1210 = test: In vitro cytotoxic activity of compound against mouse leukemia L1210 cell line

Question: `CCc1c2c(nc3ccc(OCCN4CCCCC4)cc13)-c1cc3cc(O)ccc3n1C2` was tested. Which IC50 (MCF7) did it give?
Answer: 6.3 µM

Question: What about the IC50 (PC-3) of the same molecule?
Answer: 4.8 µM

Question: And the IC50 (L1210)?
Answer: 0.55 µM

Question: With `Cc1c2c(nc3ccc(OCCN4CCCCC4)cc13)-c1cc3cc(OCCN4CCCCC4)ccc3n1C2` as the molecule, how does the IC50 (MCF7) read?
Answer: 4.6 µM

Question: What about the IC50 (PC-3) of the same molecule?
Answer: 5.3 µM

Question: What about the IC50 (L1210) of the same molecule?
Answer: 0.55 µM

Question: Which results are given for `Cc1c2c(nc3ccc(OCCN4CCCCC4)cc13)-c1cc3cc(O)ccc3n1C2`?
Answer: IC50 (MCF7): 0.55 µM; IC50 (PC-3): 4.94 µM; IC50 (L1210): 0.55 µM

Question: Which IC50 (MCF7) does the source give for `Cc1c2c(nc3ccc(O)cc13)-c1cc3cc(O)ccc3n1C2` here?
Answer: > 50 µM

Question: What about the IC50 (PC-3) of the same molecule?
Answer: > 10 µM

Question: And the IC50 (L1210)?
Answer: 3.4 µM

Question: Which IC50 (MCF7) does the source give for `COc1ccc2c(c1)cc1n2Cc2c-1nc1ccc(O)cc1c2C` here?
Answer: 12 µM

Question: What about the IC50 (PC-3) of the same molecule?
Answer: > 50 µM

Question: What about the IC50 (L1210) of the same molecule?
Answer: 0.6 µM

Question: How did the IC50 (MCF7) turn out when `COc1ccc2c(c1)cc1n2Cc2c-1nc1ccc(OCCN3CCCCC3)cc1c2C` was run?
Answer: 5.3 µM

Question: And the IC50 (PC-3)?
Answer: 5.5 µM

Question: And the IC50 (L1210)?
Answer: 3.93 µM

Question: Which IC50 (MCF7) does the source give for `CC[C@@]1(O)C(=O)OCc2c1cc1n(c2=O)Cc2cc3ccccc3nc2-1` [CAMPTOTHECIN] here?
Answer: 0.32 µM

Question: And the IC50 (PC-3)?
Answer: 0.31 µM

Question: And the IC50 (L1210)?
Answer: 0.06 µM
